According to PubChem BioAssay AID248 (DTP/NCI, 2004):
Several values for one entry are separate records, joined by “and”; a condition that tells them apart may be missing. Equal values may be shown once. Inconclusive results and toxic doses are left out. Cut-off read from the data, not from the text of the source: active = T/C of 150% or more; inactive = T/C below 125%.

Tested on: L1210 leukemia ip in BDF1 mice, survival T/C
Assay: NCI In Vivo Anticancer Drug Screen. Data for tumor model L1210 Leukemia (intraperitoneal) in B6D2F1 (BDF1) mice
Conditions: endpoint: mean survival time, higher = longer survival
Summary of the method: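 Ratio derived from survival: compound-dosed mice over vehicle-dosed mice, all bearing a transplantable tumor.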

[1] = dose: 200.0 mg/kg/injection, schedule: Q01DX001 (ip), vehicle: saline
[2] = dose: 100.0 mg/kg/injection, schedule: Q01DX009 (ip), vehicle: Klucel (hydroxypropylcellulose) (HPC)
[3] = dose: 100.0 mg/kg/injection, schedule: Q04DX003 (ip), vehicle: Klucel (hydroxypropylcellulose) (HPC)
[4] = dose: 200.0 mg/kg/injection, schedule: Q01DX009 (ip), vehicle: Klucel (hydroxypropylcellulose) (HPC)
[5] = dose: 200.0 mg/kg/injection, schedule: Q04DX003 (ip), vehicle: Klucel (hydroxypropylcellulose) (HPC)
[6] = dose: 400.0 mg/kg/injection, schedule: Q01DX009 (ip), vehicle: Klucel (hydroxypropylcellulose) (HPC)
[7] = dose: 400.0 mg/kg/injection, schedule: Q04DX003 (ip), vehicle: Klucel (hydroxypropylcellulose) (HPC)
[8] = dose: 25.0 mg/kg/injection, schedule: Q04DX003 (ip), vehicle: saline with Tween-80
[9] = dose: 50.0 mg/kg/injection, schedule: Q04DX003 (ip), vehicle: saline with Tween-80
[10] = dose: 50.0 mg/kg/injection, schedule: Q04DX002 (ip), vehicle: saline with Tween-80
[11] = dose: 100.0 mg/kg/injection, schedule: Q04DX003 (ip), vehicle: saline with Tween-80
[12] = dose: 200.0 mg/kg/injection, schedule: Q04DX003 (ip), vehicle: saline with Tween-80
[13] = dose: 400.0 mg/kg/injection, schedule: Q04DX003 (ip), vehicle: saline with Tween-80
[14] = dose: 100.0 mg/kg/injection, schedule: Q01DX001 (ip), vehicle: carboxymethylcellulose (CMC)
[15] = dose: 200.0 mg/kg/injection, schedule: Q01DX001 (ip), vehicle: carboxymethylcellulose (CMC)
[16] = dose: 400.0 mg/kg/injection, schedule: Q01DX001 (ip), vehicle: carboxymethylcellulose (CMC)

Measured: T/C

ClCCN(CCCl)CCCNc1cc(-c2ccc(Cl)cc2)nc2cc(Cl)ccc12
inactive: dose: 5.0 mg/kg/injection, schedule: Q01DX001 (ip), vehicle: saline 101 % of control | dose: 10.0 mg/kg/injection, schedule: Q01DX001 (ip), vehicle: saline 101 % of control | dose: 20.0 mg/kg/injection, schedule: Q01DX001 (ip), vehicle: saline 109 % of control | dose: 40.0 mg/kg/injection, schedule: Q01DX001 (ip), vehicle: saline 104 % of control | dose: 80.0 mg/kg/injection, schedule: Q01DX001 (ip), vehicle: saline 92 % of control | [1] 106 % of control

Brc1ccccc1C[n+]1cccc2ccccc21
inactive: dose: 75.0 mg/kg/injection, schedule: Q01DX001 (ip), vehicle: other 101 % of control

CNc1ccccc1C#N
inactive: [2] 102 % of control | [3] 93 % of control | [4] 98 % of control | [5] 95 % of control | [6] 109 % of control | [7] 97 % of control

O=C(Oc1ccc(S(=O)(=O)F)cc1Cl)c1ccc(Cl)cc1
inactive: dose: 100.0 mg/kg/injection, schedule: Q04DX002 (ip), vehicle: Klucel (hydroxypropylcellulose) (HPC) 92 % of control | dose: 200.0 mg/kg/injection, schedule: Q04DX002 (ip), vehicle: Klucel (hydroxypropylcellulose) (HPC) 89 % of control | dose: 400.0 mg/kg/injection, schedule: Q04DX002 (ip), vehicle: Klucel (hydroxypropylcellulose) (HPC) 89 % of control

N/C(=N\Cl)C(Cl)(Cl)Cl
inactive: dose: 12.5 mg/kg/injection, schedule: Q04DX003 (ip), vehicle: saline with Tween-80 103 % of control | [8] 103 % of control | [9] 103 % of control

C1CCC2[N-]CC3CCCCC3[N-]CC3CCCCC3[N-]CC3CCCCC3[N-]CC2C1.[Cu+2].[O-][Cl+3]([O-])([O-])O (stereo unspecified)
inactive: dose: 12.5 mg/kg/injection, schedule: Q04DX002 (ip), vehicle: Klucel (hydroxypropylcellulose) (HPC) 111 % of control | dose: 25.0 mg/kg/injection, schedule: Q04DX002 (ip), vehicle: Klucel (hydroxypropylcellulose) (HPC) 108 % of control | dose: 50.0 mg/kg/injection, schedule: Q04DX002 (ip), vehicle: Klucel (hydroxypropylcellulose) (HPC) 108 % of control

O=C(CC(=O)c1ccc(Cl)cc1)NC(=O)c1ccccc1
inactive: dose: 100.0 mg/kg/injection, schedule: Q01DX001 (ip), vehicle: other 96 % of control | dose: 200.0 mg/kg/injection, schedule: Q01DX001 (ip), vehicle: other 91 % of control | dose: 400.0 mg/kg/injection, schedule: Q01DX001 (ip), vehicle: other 89 % of control

CCCc1ccccc1NC1=NCCO1
inactive: [10] 98 % of control | dose: 100.0 mg/kg/injection, schedule: Q04DX002 (ip), vehicle: saline with Tween-80 95 % of control | [11] 90 % of control | dose: 200.0 mg/kg/injection, schedule: Q04DX002 (ip), vehicle: saline with Tween-80 92 % of control | [12] 87 % of control | dose: 400.0 mg/kg/injection, schedule: Q04DX002 (ip), vehicle: saline with Tween-80 88 % of control | [13] 89 % of control

COC1OC2COc3ccccc3OC2C(NC#N)C1OC (stereo unspecified)
inactive: dose: 25.0 mg/kg/injection, schedule: Q01DX009 (ip), vehicle: Klucel (hydroxypropylcellulose) (HPC) 102 % of control | dose: 50.0 mg/kg/injection, schedule: Q01DX009 (ip), vehicle: Klucel (hydroxypropylcellulose) (HPC) 96 % of control | [2] 93 % of control and 87 % of control

CNC1C(O)C(OC2C(N)CC(N)C(OC3OC(CN)C(O)C(O)C3O)C2O)OCC1(C)O (stereo unspecified)
inactive: dose: 100.0 mg/kg/injection, schedule: Q04DX002 (ip), vehicle: saline 116 % of control | dose: 200.0 mg/kg/injection, schedule: Q04DX002 (ip), vehicle: saline 100 % of control | dose: 400.0 mg/kg/injection, schedule: Q04DX002 (ip), vehicle: saline 95 % of control

c1ccc(CC2CCCCCC2)cc1
inactive: [2] 96 % of control | [3] 100 % of control | dose: 150.0 mg/kg/injection, schedule: Q01DX009 (ip), vehicle: Klucel (hydroxypropylcellulose) (HPC) 101 % of control | [4] 102 % of control | [5] 91 % of control | [7] 96 % of control

CCOC(=O)C1OC(n2cnc3c(N)ncnc32)C(O)C1O (stereo unspecified)
inactive: dose: 100.0 mg/kg/injection, schedule: Q01DX005 (ip), vehicle: saline 98 % of control | dose: 200.0 mg/kg/injection, schedule: Q01DX005 (ip), vehicle: saline 97 % of control

COc1ccc(C=Nc2cc([N+](=O)[O-])ccc2O)cc1
inactive: [14] 98 % of control | [15] 98 % of control | [16] 94 % of control

COc1ccc(C)cc1NC(=O)Nc1ccccc1F
inactive: [2] 97 % of control and 91 % of control | [4] 89 % of control | [6] 92 % of control and 101 % of control

CCOC(=O)N1CCCCC1
inactive: dose: 50.0 mg/kg/injection, schedule: Q01DX001 (ip), vehicle: carboxymethylcellulose (CMC) 95 % of control | [14] 95 % of control | [15] 101 % of control and 93 % of control | [16] 104 % of control and 90 % of control

Cc1cccc(Nc2nc(N)nc(N)c2N)c1
inactive: dose: 25.0 mg/kg/injection, schedule: Q01DX Z (ip), vehicle: saline 101 % of control | dose: 50.0 mg/kg/injection, schedule: Q01DX Z (ip), vehicle: saline 91 % of control

CC1SC(c2ccccc2)N(c2ccccc2)C1=O (stereo unspecified)
inactive: [2] 98 % of control | [3] 100 % of control | [4] 114 % of control | [5] 98 % of control | [6] 106 % of control | [7] 100 % of control

[B-][NH2+]c1ccc([NH2+][B-])cc1
inactive: dose: 100.0 mg/kg/injection, schedule: Q01DX001 (ip), vehicle: saline 96 % of control | [1] 91 % of control | dose: 400.0 mg/kg/injection, schedule: Q01DX001 (ip), vehicle: saline 100 % of control

NC(=O)c1csc(CCNC(=O)c2ccccc2)n1
inactive: dose: 100.0 mg/kg/injection, schedule: Q01DX001 (ip), vehicle: saline with Tween-80 100 % of control | dose: 100.0 mg/kg/injection, schedule: Q01DX009 (ip), vehicle: saline with Tween-80 100 % of control | [11] 95 % of control | dose: 200.0 mg/kg/injection, schedule: Q01DX001 (ip), vehicle: saline with Tween-80 102 % of control | dose: 200.0 mg/kg/injection, schedule: Q01DX009 (ip), vehicle: saline with Tween-80 100 % of control | [12] 103 % of control | dose: 400.0 mg/kg/injection, schedule: Q01DX001 (ip), vehicle: saline with Tween-80 104 % of control | dose: 400.0 mg/kg/injection, schedule: Q01DX009 (ip), vehicle: saline with Tween-80 89 % of control | [13] 101 % of control

Nc1ccc(-c2ccc(N)c(Cl)c2)cc1Cl
inactive: dose: 100.0 mg/kg/injection, schedule: Q04DX003 (ip), vehicle: saline 100 % of control | dose: 200.0 mg/kg/injection, schedule: Q04DX003 (ip), vehicle: saline 103 % of control | dose: 400.0 mg/kg/injection, schedule: Q04DX003 (ip), vehicle: saline 91 % of control

CN=C(NC)c1ccc(NC(=O)c2ccc(C(=O)Nc3ccc(C(=NC)NC)c(OC)c3)c(Cl)c2)cc1OC
inactive: dose: 1.26 mg/kg/injection, schedule: Q01DX Z (ip), vehicle: saline 98 % of control

CCN(/N=C/c1ccc([N+](=O)[O-])o1)C(N)=O
inactive: dose: 25.0 mg/kg/injection, schedule: Q04DX002 (ip), vehicle: saline with Tween-80 100 % of control | [10] 103 % of control

O=C(NC(=S)Nc1nc(-c2ccccc2)cs1)c1ccccc1
inactive: dose: 100.0 mg/kg/injection, schedule: Q01DX001 (ip), vehicle: gum acacia 95 % of control | dose: 200.0 mg/kg/injection, schedule: Q01DX001 (ip), vehicle: gum acacia 103 % of control | dose: 400.0 mg/kg/injection, schedule: Q01DX001 (ip), vehicle: gum acacia 103 % of control

Cc1sc(Cc2ccccc2)nc1-c1ccc(N=Cc2ccc(N(CCOS(C)(=O)=O)CCOS(C)(=O)=O)cc2)cc1
inactive: [8] 113 % of control | [9] 123 % of control | [11] 107 % of control and 114 % of control

CC(=O)c1cccc(NC(=O)CCCCCCCCC(=O)Nc2cccc(C(C)=O)c2)c1
inactive: [2] 96 % of control | [4] 91 % of control | [6] 94 % of control
